{"source": "PubChem BioAssay AID2060905", "about": "(Molecular Pharmacology Branch, DTP, NCI, 2025)", "tested_on": "282377-053-R-J1-PDC complex spheroid viability", "experiment": "Anticancer human tumor 282377-053-R-J1-PDC patient-derived colon adenocarcinoma cell line growth inhibition [RAS]", "conditions": "for IC50: curve of first compound; for viability, T/C: stronger effect = lower value", "how_it_was_run": "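Agents were tested in combination matrices in half-log decrements from a top concentration at or near clinical Cmax (10 microM if undetermined). Targets were multi-cell spheroids of tumour lines plus HUVEC and MSC stromal cells.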", "data": [{"molecule": "C=CC(=O)N1CCN(c2nc(OCC3CCCN3C)nc3c(F)c(-c4nc(N)cc(C)c4C(F)(F)F)c(Cl)cc23)C(C)C1", "note": "(centres undefined) + CCn1c(-c2cc(N3CCN(C)CC3)cnc2C(C)OC)c2c3cc(ccc31)-c1csc(n1)CC(NC(=O)C1CC1C)C(=O)N1CCCC(N1)C(=O)OCC(C)(C)C2;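 also: spheroids exposed to agents for seven days before readout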;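 as to viability, T/C: luminescence viability as percent of DMSO vehicle control wells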", "values": [{"measurement": "IC50", "setting": "second compound 0.000949 µM", "value": "> 1000", "unit": "nM"}, {"measurement": "IC50", "setting": "second compound 0.003 µM", "value": "> 1000", "unit": "nM"}, {"measurement": "IC50", "setting": "second compound 0.00949 µM", "value": "> 1000", "unit": "nM"}, {"measurement": "IC50", "setting": "second compound 0.03 µM", "value": "> 1000", "unit": "nM"}, {"measurement": "IC50", "setting": "second compound 0.0949 µM", "value": "> 1000", "unit": "nM"}, {"measurement": "IC50", "setting": "second compound 0.3 µM", "value": "> 1000", "unit": "nM"}, {"measurement": "viability, T/C", "setting": "second compound 0.000949 µM, first compound 0.00316 µM", "value": 110, "unit": "%"}, {"measurement": "viability, T/C", "setting": "second compound 0.000949 µM, first compound 0.01 µM", "value": 101, "unit": "%"}, {"measurement": "viability, T/C", "setting": "second compound 0.000949 µM, first compound 0.0316 µM", "value": 112, "unit": "%"}, {"measurement": "viability, T/C", "setting": "second compound 0.000949 µM, first compound 0.1 µM", "value": 102, "unit": "%"}, {"measurement": "viability, T/C", "setting": "second compound 0.000949 µM, first compound 0.316 µM", "value": 129, "unit": "%"}, {"measurement": "viability, T/C", "setting": "second compound 0.000949 µM, first compound 1 µM", "value": 107, "unit": "%"}, {"measurement": "viability, T/C", "setting": "second compound 0.003 µM, first compound 0.00316 µM", "value": 108, "unit": "%"}, {"measurement": "viability, T/C", "setting": "second compound 0.003 µM, first compound 0.01 µM", "value": 120, "unit": "%"}, {"measurement": "viability, T/C", "setting": "second compound 0.003 µM, first compound 0.0316 µM", "value": 98.4, "unit": "%"}, {"measurement": "viability, T/C", "setting": "second compound 0.003 µM, first compound 0.1 µM", "value": 115, "unit": "%"}, {"measurement": "viability, T/C", "setting": "second compound 0.003 µM, first compound 0.316 µM", "value": 73.2, "unit": "%"}, {"measurement": "viability, T/C", "setting": "second compound 0.003 µM, first compound 1 µM", "value": 143, "unit": "%"}, {"measurement": "viability, T/C", "setting": "second compound 0.00949 µM, first compound 0.00316 µM", "value": 134, "unit": "%"}, {"measurement": "viability, T/C", "setting": "second compound 0.00949 µM, first compound 0.01 µM", "value": 97.6, "unit": "%"}, {"measurement": "viability, T/C", "setting": "second compound 0.00949 µM, first compound 0.0316 µM", "value": 115, "unit": "%"}, {"measurement": "viability, T/C", "setting": "second compound 0.00949 µM, first compound 0.1 µM", "value": 89.5, "unit": "%"}, {"measurement": "viability, T/C", "setting": "second compound 0.00949 µM, first compound 0.316 µM", "value": 108, "unit": "%"}, {"measurement": "viability, T/C", "setting": "second compound 0.00949 µM, first compound 1 µM", "value": 110, "unit": "%"}, {"measurement": "viability, T/C", "setting": "second compound 0.03 µM, first compound 0.00316 µM", "value": 120, "unit": "%"}, {"measurement": "viability, T/C", "setting": "second compound 0.03 µM, first compound 0.01 µM", "value": 85.6, "unit": "%"}, {"measurement": "viability, T/C", "setting": "second compound 0.03 µM, first compound 0.0316 µM", "value": 88.1, "unit": "%"}, {"measurement": "viability, T/C", "setting": "second compound 0.03 µM, first compound 0.1 µM", "value": 96.6, "unit": "%"}, {"measurement": "viability, T/C", "setting": "second compound 0.03 µM, first compound 0.316 µM", "value": 93.6, "unit": "%"}, {"measurement": "viability, T/C", "setting": "second compound 0.03 µM, first compound 1 µM", "value": 107, "unit": "%"}, {"measurement": "viability, T/C", "setting": "second compound 0.0949 µM, first compound 0.00316 µM", "value": 124, "unit": "%"}, {"measurement": "viability, T/C", "setting": "second compound 0.0949 µM, first compound 0.01 µM", "value": 113, "unit": "%"}, {"measurement": "viability, T/C", "setting": "second compound 0.0949 µM, first compound 0.0316 µM", "value": 106, "unit": "%"}, {"measurement": "viability, T/C", "setting": "second compound 0.0949 µM, first compound 0.1 µM", "value": 119, "unit": "%"}, {"measurement": "viability, T/C", "setting": "second compound 0.0949 µM, first compound 0.316 µM", "value": 91.8, "unit": "%"}, {"measurement": "viability, T/C", "setting": "second compound 0.0949 µM, first compound 1 µM", "value": 133, "unit": "%"}, {"measurement": "viability, T/C", "setting": "second compound 0.3 µM, first compound 0.00316 µM", "value": 113, "unit": "%"}, {"measurement": "viability, T/C", "setting": "second compound 0.3 µM, first compound 0.01 µM", "value": 93.7, "unit": "%"}, {"measurement": "viability, T/C", "setting": "second compound 0.3 µM, first compound 0.0316 µM", "value": 134, "unit": "%"}, {"measurement": "viability, T/C", "setting": "second compound 0.3 µM, first compound 0.1 µM", "value": 120, "unit": "%"}, {"measurement": "viability, T/C", "setting": "second compound 0.3 µM, first compound 0.316 µM", "value": 104, "unit": "%"}, {"measurement": "viability, T/C", "setting": "second compound 0.3 µM, first compound 1 µM", "value": 121, "unit": "%"}]}, {"molecule": "CC1(C)CCC(Nc2ncc(C(F)(F)F)c(-c3c[nH]c4c(P(C)(C)=O)c(C#N)ccc34)n2)CN1", "note": "(centres undefined) + CCn1c(-c2cc(N3CCN(C)CC3)cnc2C(C)OC)c2c3cc(ccc31)-c1csc(n1)CC(NC(=O)C1CC1C)C(=O)N1CCCC(N1)C(=O)OCC(C)(C)C2", "values": [{"measurement": "IC50", "setting": "second compound 0.000949 µM", "value": "> 300", "unit": "nM"}, {"measurement": "IC50", "setting": "second compound 0.003 µM", "value": "> 300", "unit": "nM"}, {"measurement": "IC50", "setting": "second compound 0.00949 µM", "value": "> 300", "unit": "nM"}, {"measurement": "IC50", "setting": "second compound 0.03 µM", "value": "> 300", "unit": "nM"}, {"measurement": "IC50", "setting": "second compound 0.0949 µM", "value": "> 300", "unit": "nM"}, {"measurement": "IC50", "setting": "second compound 0.3 µM", "value": "> 300", "unit": "nM"}, {"measurement": "viability, T/C", "setting": "second compound 0.000949 µM, first compound 0.000949 µM", "value": 104, "unit": "%"}, {"measurement": "viability, T/C", "setting": "second compound 0.000949 µM, first compound 0.003 µM", "value": 123, "unit": "%"}, {"measurement": "viability, T/C", "setting": "second compound 0.000949 µM, first compound 0.00949 µM", "value": 109, "unit": "%"}, {"measurement": "viability, T/C", "setting": "second compound 0.000949 µM, first compound 0.03 µM", "value": 104, "unit": "%"}, {"measurement": "viability, T/C", "setting": "second compound 0.000949 µM, first compound 0.0949 µM", "value": 97.8, "unit": "%"}, {"measurement": "viability, T/C", "setting": "second compound 0.000949 µM, first compound 0.3 µM", "value": 94.8, "unit": "%"}, {"measurement": "viability, T/C", "setting": "second compound 0.003 µM, first compound 0.000949 µM", "value": 98.2, "unit": "%"}, {"measurement": "viability, T/C", "setting": "second compound 0.003 µM, first compound 0.003 µM", "value": 135, "unit": "%"}, {"measurement": "viability, T/C", "setting": "second compound 0.003 µM, first compound 0.00949 µM", "value": 129, "unit": "%"}, {"measurement": "viability, T/C", "setting": "second compound 0.003 µM, first compound 0.03 µM", "value": 99.6, "unit": "%"}, {"measurement": "viability, T/C", "setting": "second compound 0.003 µM, first compound 0.0949 µM", "value": 90.2, "unit": "%"}, {"measurement": "viability, T/C", "setting": "second compound 0.003 µM, first compound 0.3 µM", "value": 94.9, "unit": "%"}, {"measurement": "viability, T/C", "setting": "second compound 0.00949 µM, first compound 0.000949 µM", "value": 116, "unit": "%"}, {"measurement": "viability, T/C", "setting": "second compound 0.00949 µM, first compound 0.003 µM", "value": 96.5, "unit": "%"}, {"measurement": "viability, T/C", "setting": "second compound 0.00949 µM, first compound 0.00949 µM", "value": 126, "unit": "%"}, {"measurement": "viability, T/C", "setting": "second compound 0.00949 µM, first compound 0.03 µM", "value": 91.1, "unit": "%"}, {"measurement": "viability, T/C", "setting": "second compound 0.00949 µM, first compound 0.0949 µM", "value": 92, "unit": "%"}, {"measurement": "viability, T/C", "setting": "second compound 0.00949 µM, first compound 0.3 µM", "value": 96.3, "unit": "%"}, {"measurement": "viability, T/C", "setting": "second compound 0.03 µM, first compound 0.000949 µM", "value": 109, "unit": "%"}, {"measurement": "viability, T/C", "setting": "second compound 0.03 µM, first compound 0.003 µM", "value": 104, "unit": "%"}, {"measurement": "viability, T/C", "setting": "second compound 0.03 µM, first compound 0.00949 µM", "value": 110, "unit": "%"}, {"measurement": "viability, T/C", "setting": "second compound 0.03 µM, first compound 0.03 µM", "value": 101, "unit": "%"}, {"measurement": "viability, T/C", "setting": "second compound 0.03 µM, first compound 0.0949 µM", "value": 96.9, "unit": "%"}, {"measurement": "viability, T/C", "setting": "second compound 0.03 µM, first compound 0.3 µM", "value": 84.3, "unit": "%"}, {"measurement": "viability, T/C", "setting": "second compound 0.0949 µM, first compound 0.000949 µM", "value": 107, "unit": "%"}, {"measurement": "viability, T/C", "setting": "second compound 0.0949 µM, first compound 0.003 µM", "value": 118, "unit": "%"}, {"measurement": "viability, T/C", "setting": "second compound 0.0949 µM, first compound 0.00949 µM", "value": 124, "unit": "%"}, {"measurement": "viability, T/C", "setting": "second compound 0.0949 µM, first compound 0.03 µM", "value": 110, "unit": "%"}, {"measurement": "viability, T/C", "setting": "second compound 0.0949 µM, first compound 0.0949 µM", "value": 119, "unit": "%"}, {"measurement": "viability, T/C", "setting": "second compound 0.0949 µM, first compound 0.3 µM", "value": 76.7, "unit": "%"}, {"measurement": "viability, T/C", "setting": "second compound 0.3 µM, first compound 0.000949 µM", "value": 136, "unit": "%"}, {"measurement": "viability, T/C", "setting": "second compound 0.3 µM, first compound 0.003 µM", "value": 144, "unit": "%"}, {"measurement": "viability, T/C", "setting": "second compound 0.3 µM, first compound 0.00949 µM", "value": 145, "unit": "%"}, {"measurement": "viability, T/C", "setting": "second compound 0.3 µM, first compound 0.03 µM", "value": 113, "unit": "%"}, {"measurement": "viability, T/C", "setting": "second compound 0.3 µM, first compound 0.0949 µM", "value": 108, "unit": "%"}, {"measurement": "viability, T/C", "setting": "second compound 0.3 µM, first compound 0.3 µM", "value": 88.2, "unit": "%"}]}]}
